The subject of one assay is Bsp184FDH. Description: Inhibition studies of Bsp184FDH-catalysed formate oxidation. It counts as biochemical, Burkholderia cenocepacia PC184. As to the method:
(§1) Inhibition of formate oxidation by Bsp383FDH or Bsp184FDH was performed in the presence of the following potential inhibitors: NaN3, NaNO2, KNO3, KNO2, KCN and iodoacetamide at 5 mM and 20 mM concentrations. In a typical procedure, 10 μL of enzyme, Bsp383FDH (0.022 mg/mL) or Bsp184FDH (0.020 mg/mL) was incubated in sodium phosphate buffer (50 mM, pH 7.0) containing 100 mM of formate (sodium formate) and 5 mM and 20 mM inhibitors concentrations for 5 minutes at room temperature. Reaction of formate oxidation was then initiated by addition of NADP in 5 mM final concentration. Absorbance at 340 nm due to NADPH formation was spectrophotometrically monitored using a microtiter plate reader. Absorbance was recorded at 10 seconds intervals for 10 minutes. Initial activities were then calculated using the linear part of the initial readings using at least 20 data points and used directly as relative activity values. Control experiments were also performed in the absence of the enzyme.

The next assay relates to Bsp383FDH. Description: Inhibition studies of Bsp383FDH-catalysed formate oxidation. Type of assay: biochemical, Burkholderia sp. 383. As to the method: as §1

`O=C[O-].[Na+]` [Formate salt]: the “inhibition of BcenFDH1” value in the assay on Bsp184FDH is recorded as “does not inhibit”. Further, in the assay on Bsp383FDH, the “inhibition of BspFDH2” value is reported as “does not inhibit”.

The values above are taken from patent publication US20100086958A1, “NOVEL ENZYME” (priority 2008, published 2010).
